Data set [1] is described as follows: Lipophilicity, log D of the compound. It is filed as physicochemical. Conditions: octanol/water.
The nature of data set [2]: Clearance in human hepatocytes assessed per 10^6 cells. The data set is classed as ADME, cell-based, Hepatocyte. Conditions: read-out: CLH.
Data set [3] is described as follows: Oral bioavailability in CD1 mouse at 20 umol/kg. The data set is classed as ADME, organism-based. The conditions noted are these: in vivo.
A short description of data set [4]: Oral bioavailability in rat. The conditions noted are these: in vivo.
A short description of data set [5]: Clearance in rat at 4 umol/kg, iv. It is filed as ADME, organism-based. Conditions: in vivo.
The nature of data set [6]: Clearance in CD1 mouse at 10 umol/kg, iv. It is filed as ADME, organism-based. Conditions: in vivo.
Data set [7] relates to MDR1. The data set can be described thus: Apparent permeability from apical to basolateral side of MDCK2 cells expressing human MDR1 at 10 uM. The data set is classed as ADME, cell-based, Canis lupus familiaris, MDCK-II. Conditions: dog, MDCK-MDR1.
Data set [8] deals with MDR1. The data set can be described thus: Apparent permeability from basolateral to apical side of MDCK2 cells expressing human MDR1 at 10 uM. The data set is classed as ADME, cell-based, Canis lupus familiaris, MDCK-II. The conditions noted are these: dog, MDCK-MDR1.
Data set [9] in a line: Oral bioavailability in rat at 6 umol/kg. The data set is classed as ADME, organism-based. The conditions noted are these: in vivo.
Data set [10] in a line: Clearance in rat at 1 umol/kg, iv. It is filed as ADME, organism-based. Conditions: in vivo.

Each structure is given as a SMILES string.

`C[C@@H]1CN(c2nc(N3CCOC[C@@H]3C)c3ccc(-c4ccccc4)nc3n2)C[C@H](C)O1`: in data set [1], the logD turned out to be 3.75.
As to `COc1ccc(-c2ccc3c(N4CCOC[C@@H]4C)nc(N4CCOC[C@@H]4C)nc3n2)cc1C(=O)N(C)C`, in [2], the hepatocyte CLint worked out at 4.3 µL/min/1e6 cells.
Regarding `COc1ccc(-c2ccc3c(N4CCOC[C@@H]4C)nc(N4CCOC[C@@H]4C)nc3n2)cc1C(N)=O`, in data set [2], the hepatocyte CLint stood at 33.2 µL/min/1e6 cells.
In the case of `CNC(=O)c1cc(-c2ccc3c(N4CCOC[C@@H]4C)nc(N4CCOC[C@@H]4C)nc3n2)ccc1OC`, the hepatocyte CLint in data set [2] stood at 14.3 µL/min/1e6 cells.
Regarding `COc1ccc(-c2ccc3c(N4CCOC[C@@H]4C)nc(N4CCOC[C@@H]4C)nc3n2)cc1C(C)O` (some centres undefined), the hepatocyte CLint in data set [2] amounted to 37.8 µL/min/1e6 cells.
Regarding `CNC(=O)c1cccc(-c2ccc3c(N4CCOC[C@@H]4C)nc(N4CCOC[C@@H]4C)nc3n2)c1` [VISTUSERTIB], the bioavailability in data set [3] was over 100%; in data set [4], 40%. Also, in [2], the hepatocyte CLint is under 4.2 µL/min/1e6 cells. Also, the clearance stood at 12.6 mL/min/kg in data set [5] and 10.4 mL/min/kg in data set [6]. Further, the logD in data set [1] is 3.16.
As to `COc1ccc(-c2ccc3c(N4CCOC[C@@H]4C)nc(N4CCOC[C@@H]4C)nc3n2)cc1CO` [AZD-8055], the bioavailability in data set [3] turned out to be 81%; in data set [4], 12%. Also, the hepatocyte CLint in [2] is 36.4 µL/min/1e6 cells. For the same compound, the clearance in data set [5] amounted to 36.6 mL/min/kg; in data set [6], 42.8 mL/min/kg. The same compound gave a logD in data set [1] of 3.23.
In the case of `COc1ccc(-c2ccc3c(N4CCOCC4)nc(N4C[C@@H](C)O[C@@H](C)C4)nc3n2)cc1CO` [Ku-0063794], the bioavailability in [3] amounted to 61%; in data set [9], 33%. In the data set on MDR1 [7], the Papp A→B at 10 µM is 2.6 ×10⁻⁶ cm/s. Moreover, the Papp B→A at 10 µM in the data set on MDR1 [8] turned out to be 15 ×10⁻⁶ cm/s. Also, the figures for the clearance in [10] and in [6] were 35.8 mL/min/kg and 3.1 mL/min/kg, respectively.
In the case of `C[C@H]1COCCN1c1nc(N2CCOC[C@@H]2C)c2ccc(-c3ccc4nc[nH]c(=O)c4c3)nc2n1`, in data set [2], the hepatocyte CLint stood at 176 µL/min/1e6 cells.
Regarding `COc1ccc(-c2ccc3c(N4CCOCC4)nc(N4C[C@@H](C)O[C@@H](C)C4)nc3n2)cc1CNCCO`, the Papp A→B at 10 µM with MDR1 [7] was determined as 45.3 ×10⁻⁶ cm/s. Also, the Papp B→A at 10 µM in the data set on MDR1 [8] is 16.6 ×10⁻⁶ cm/s.
Turning to `CNC(=O)c1cc(-c2ccc3c(N4CCOC[C@@H]4C)nc(N4CCOC[C@@H]4C)nc3n2)ccc1OC(F)F`, the hepatocyte CLint in [2] turned out to be 14.9 µL/min/1e6 cells.
The same measure, in the same setting: to `C[C@H]1COCCN1c1nc(N2CCOC[C@@H]2C)c2ccc(-c3cccc(C(=O)NCCO)c3)nc2n1` belongs under 5.4 µL/min/1e6 cells.
In turn, `C[C@@H]1CN(c2nc(N3CCOC[C@@H]3C)c3ncc(-c4ccccc4)nc3n2)C[C@H](C)O1` had a logD in data set [1] of over 4.

In general, logD refers to lipophilicity at a set pH, counting ionised and neutral species. For orientation: bioavailability means the share of a dose that reaches the circulation, judged against a reference dose that is usually intravenous. A high value points to much systemic uptake. What is called clearance is a measure of how efficiently the substance is removed, as volume per time. A lower clearance goes with a low capacity for elimination. For orientation: Papp A→B means the apparent permeability from the apical to the basolateral side of a cell layer. The Papp B→A is how fast a substance crosses the layer from the basolateral side.

The record behind these values is ChEMBL document CHEMBL2331448, “Optimization of potent and selective dual mTORC1 and mTORC2 inhibitors: the discovery of AZD8055 and AZD2014” (Bioorg Med Chem Lett, 2013).
